# Reference: patent US20240325370A1, “THERAPEUTIC REGIMENS OF A DEGRADER OF BRD9” (FOGHORN THERAPEUTICS INC., priority 2021, published 2024)
# Like-named read-outs stand apart in the source and are kept apart here.
# How the values were obtained:
# BRD9 [1] = biological target: T1, BRD9 (Homo sapiens, UniProt Q9H8M2); assay: BRD9 degradation by western blot in synovial sarcoma cells (SYO-1, ASKA); format: cell-based; conditions: for DC50: read-out: Fitted DC50
# T1 sequence (Q9H8M2 1-597): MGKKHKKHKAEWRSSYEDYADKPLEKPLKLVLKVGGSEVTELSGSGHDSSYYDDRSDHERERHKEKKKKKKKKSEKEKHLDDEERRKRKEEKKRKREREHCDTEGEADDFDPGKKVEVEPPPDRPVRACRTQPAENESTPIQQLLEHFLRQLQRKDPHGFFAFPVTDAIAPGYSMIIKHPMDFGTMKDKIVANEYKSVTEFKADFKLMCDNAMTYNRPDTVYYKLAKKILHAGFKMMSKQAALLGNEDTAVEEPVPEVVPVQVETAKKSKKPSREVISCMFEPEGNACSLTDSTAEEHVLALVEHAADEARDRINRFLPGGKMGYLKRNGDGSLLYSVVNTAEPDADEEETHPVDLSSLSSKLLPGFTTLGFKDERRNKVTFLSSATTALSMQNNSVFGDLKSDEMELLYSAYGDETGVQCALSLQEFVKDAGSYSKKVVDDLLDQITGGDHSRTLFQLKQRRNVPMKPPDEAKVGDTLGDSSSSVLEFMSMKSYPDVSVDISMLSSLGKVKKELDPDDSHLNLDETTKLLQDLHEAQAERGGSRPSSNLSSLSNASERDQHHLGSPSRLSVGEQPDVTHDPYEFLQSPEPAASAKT
# Experimental: Method. Synovial sarcoma cells were plated in 6-well plate at […] cells/well and treated with serial concentrations of BRD9 degrader (10 nM top concentration, diluted 1:3) the next day for two time points at 37° C. Cells were then harvested, washed with cold PBS, and frozen in cell pellets at −80° C. Lysates were prepared by resuspending thawed pellets in 1×RIPA Lysis and Extraction buffer (Thermo Fisher, Cat #89900) with 1× Halt™ Protease and Phosphatase Inhibitor Cocktail, EDTA-free (Thermo Fisher, Cat #78441) and 1:1000 dilution Pierce™ Universal Nuclease for Cell Lysis 25ku (Thermo Fisher, Cat #88700). Lysates were incubated on ice for 10 minutes and then centrifuged in 4° C. at maximum speed (15,000 rpm) for 10 minutes. Samples were then analyzed for total protein using BCA protein quantification assay and diluted to 1 ug/μL with lysis buffer and 1× NuPAGE™ LDS Sample Buffer (4×) (Thermo Fisher, Cat #NP0007) and 1×DTT from 30× stock (Cell Signaling Technologies, Cat #14265S). Samples with 20-25 ug of total protein were loaded into 4-12% Bis-Tris Mini-Gel with 1×MES Running buffer and run at 150V for 45 minutes. Gels were transferred using Trans-Blot® Turbo™ Transfer System (semi-dry) at 25V for 10 minutes (High MW setting) on nitrocellulose blots. Blots were blocked in 5% milk in TBST for 1 hour and probed with BRD9 antibody (Bethyl Labs, Cat #A303-781A, 1:750 for SYO1, and Cell Signaling Technologies, Cat #71232S for ASKA) and beta-Actin antibody (Cell Signaling Technologies, Cat #3700, 1:2000) overnight at 4° C. The next day, blots were washed in TBST 3× and probed with 1:5000 IRDye® 680LT Goat anti-Rabbit IgG Secondary Antibody (LICOR, Cat #926-68021) and 1:10000 IRDye® 800CW Goat anti-Mouse IgG Secondary Antibody (LiCOR, Cat #926-32210) in LiCOR Odyssey® Blocking Buffer (TBS) for 1 hour at room temperature. Blots were washed in TBST 3× and scanned at […] wavelength using LiCOR Odyssey® CLx Imaging System. Western blot signal was quantified using same analyses program included in the same machine. BRD9 signal was quantified by normalizing to beta-actin signal and all samples were normalized to DMSO, set as 100% signal.
# [2] = Interconversion between Enantiomer 1 and Enantiomer 2 in cell medium; format: physicochemical; conditions: Enantiomer 1 dosing, cell medium 37° C.; for Mean peak area ratio of Enantiomer 2 over Enantiomer 1 peak area ratio: 0.2 µM
# Experimental: For the assessment of interconversion between Enantiomer 1 and Enantiomer 2 in cell medium, the following test was performed. […] At designated time point, aliquot (50 μL) was taken and processed by the addition of 150 μL of acetonitrile containing 0.1% formic acid and internal standard for LC/MS-MS analysis. Peak areas of both Enantiomer 1 and Enantiomer 2 were determined for each sample using a chiral specific analytical method.
# BRD9 [3] = biological target: T1, BRD9; assay: BRD9 degradation by western blot in synovial sarcoma cells (SYO-1, ASKA); format: cell-based; conditions: 30 minutes, up to 10 µM
# BRD9 [4] = biological target: T1, BRD9; assay: Pharmacodynamic activity in SYO-1 xenograft model (tumor BRD9 western blot); format: in vivo, mice; design: from tissue; host or cells: SYO-1 xenograft tumours in BALB/c nude or NOD SCID mice; conditions: SYO-1 xenograft, BALB/c Nude mice; single dose i.v. (Table 6)
# Experimental: Method. The SYO-1 tumor cells were maintained in vitro as adherent cells in Dulbecco's Modified Eagle Medium (DMEM) supplemented with 10% fetal bovine serum at 37° C. in an atmosphere of 5% CO2 in air. The cells growing in an exponential growth phase were harvested and counted for tumor inoculation. BALB/c Nude mice (Shanghai Lingchang biological science) were inoculated subcutaneously on the right flank with (5×10^6) in 0.1 mL of phosphate buffered saline (PBS). The treatment-(described in table 6)—was started on day 19 after tumor inoculation, when the average tumor size reached 499 mm^3.
# Mice were treated with racemic D1, 1 mg/kg, i.p. for 4 weeks, mice were euthanized, and tumors collected 1, 4, 8, 24, 48 and 72-hour post last dose. Tumors were lysed with 1×RIPA lysis buffer (Boston BioProducts, BP-115D) with protease and phosphatase protein inhibitor (Roche Applied Science #04906837001 & 05892791001). Equal amount of lysate (30 ug) were loaded in 4-12% Bis-Tris Midi Protein Gels in 1×MOPS buffer; samples ran at 120 V for 120 min. Proteins was transferred to membrane (NC) with TransBlot at 250 mA for 150 minute, then membranes were blocked with Odyssey Blocking buffer for 1 hour at room temperature. Membranes were hybridized overnight in cold room with primary antibodies. Images acquired using Li-COR imaging system (Li-COR Biotechnology, Lincoln, Nebraska).
# Further study. The other study examined a range of compound D1 dose levels (0.05, 0.25, 1 or 5 mg/kg) formulated in a vehicle of 20% SBECD for tumor BRD9 protein levels up to 144 hours post dose. […] BRD9 protein levels were still depleted by 83.4% and 73.2% at 120 hours (5 days) and 144 hours (6 days), respectively, after a single IV administration of 5 mg/kg of compound D1, which corresponds to ˜2.5 mg/kg of compound S-D1.
smiles,measurement,setting,value
"COc1cc(-c2cn(C)c(=O)c3cnc(N4CCC4)cc23)cc(OC)c1CN1CCC(CN2CCC3(CC2)CN(c2ccc4c(c2)C(=O)N([C@@H]2CCC(=O)NC2=O)C4)C3)CC1 (single isomer, unassigned) [Enantiomer 1]",DC50,"BRD9 [1]; ASKA, 0.5 h",> 10 nM
same,DC50,"BRD9 [1]; ASKA, 2 h",0.38 nM
same,DC50,"BRD9 [1]; SYO-1, 1 h",2.8 nM
same,DC50,"BRD9 [1]; SYO-1, 6 h",0.066 nM
same,potency in degradation of endogenous BRD9 protein,"BRD9 [1]; two synovial sarcoma cell lines, early time point",largely inactive or with much reduced degradation potency
same,Mean peak area ratio of Enantiomer 2 over Enantiomer 1 peak area ratio,[2]; 0 h,0.0
same,Mean peak area ratio of Enantiomer 2 over Enantiomer 1 peak area ratio,[2]; 0.5 h,0.0
same,Mean peak area ratio of Enantiomer 2 over Enantiomer 1 peak area ratio,[2]; 2 h,0.13
same,Mean peak area ratio of Enantiomer 2 over Enantiomer 1 peak area ratio,[2]; 6 h,0.43
same,% Enantiomer 2,[2]; 2 h,12%
same,% Enantiomer 2,[2]; 6 h,30%
same,BRD9 degradation activity,BRD9 [3],no discernable activity
same,Pharmacodynamic activity: tumor BRD9 protein level by western blot,BRD9 [4],inactive and did not degrade BRD9 protein
